Results reported in PubChem BioAssay (NCI).
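Assay format: 96-well plates, 48-hour exposure. TGI: concentration producing complete growth inhibition.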

Experiments:
Assay in all cases: NCI anticancer screen, dose series, 48 h
HCT-15 colon = tested on: HCT-15 colon
HOP-62 NSCLC = tested on: HOP-62 NSCLC
M14 melanoma = tested on: M14 melanoma
IGROV1 ovarian = tested on: IGROV1 ovarian
EKVX NSCLC = tested on: EKVX NSCLC
U251 CNS = tested on: U251 CNS
HCC-2998 colon = tested on: HCC-2998 colon
SNB-75 CNS = tested on: SNB-75 CNS
LOX IMVI melanoma = tested on: LOX IMVI melanoma
OVCAR-4 ovarian = tested on: OVCAR-4 ovarian
MDA-MB-231 breast = tested on: MDA-MB-231 breast
NCI-H522 lung = tested on: NCI-H522 lung
SK-MEL-5 melanoma = tested on: SK-MEL-5 melanoma
RPMI-8226 leukemia = tested on: RPMI-8226 leukemia
ACHN renal = tested on: ACHN renal
SK-MEL-2 melanoma = tested on: SK-MEL-2 melanoma
HL-60(TB) leukemia = tested on: HL-60(TB) leukemia
SR leukemia = tested on: SR leukemia
NCI-H460 lung = tested on: NCI-H460 lung
RXF 393 renal = tested on: RXF 393 renal
MCF7 breast = tested on: MCF7 breast
SK-OV-3 ovarian = tested on: SK-OV-3 ovarian
A498 renal = tested on: A498 renal
NCI-H226 lung = tested on: NCI-H226 lung
MDA-MB-435 = tested on: MDA-MB-435
COLO 205 colon = tested on: COLO 205 colon
UACC-257 melanoma = tested on: UACC-257 melanoma
HOP-92 NSCLC = tested on: HOP-92 NSCLC
HT29 colon = tested on: HT29 colon
SF-268 CNS = tested on: SF-268 CNS
T-47D breast = tested on: T-47D breast
SW-620 colon = tested on: SW-620 colon
OVCAR-8 ovarian = tested on: OVCAR-8 ovarian
SN12C renal = tested on: SN12C renal
HCT-116 colon = tested on: HCT-116 colon
UACC-62 melanoma = tested on: UACC-62 melanoma
CCRF-CEM leukemia = tested on: CCRF-CEM leukemia
K-562 leukemia = tested on: K-562 leukemia
NCI/ADR-RES ovarian = tested on: NCI/ADR-RES ovarian
A549 NSCLC = tested on: A549 NSCLC
DU-145 prostate = tested on: DU-145 prostate
OVCAR-5 ovarian = tested on: OVCAR-5 ovarian
786-0 renal = tested on: 786-0 renal
KM12 colon = tested on: KM12 colon
SF-539 CNS = tested on: SF-539 CNS
CAKI-1 renal = tested on: CAKI-1 renal
PC-3 prostate = tested on: PC-3 prostate
UO-31 renal = tested on: UO-31 renal
TK-10 renal = tested on: TK-10 renal
OVCAR-3 ovarian = tested on: OVCAR-3 ovarian
MOLT-4 leukemia = tested on: MOLT-4 leukemia
BT-549 breast = tested on: BT-549 breast
SF-295 CNS = tested on: SF-295 CNS
SK-MEL-28 melanoma = tested on: SK-MEL-28 melanoma

Structure (SMILES): O=C(/C=C/c1ccc(Cl)c(Cl)c1)CCN1CCN(CCC(=O)/C=C/c2ccc(Cl)c(Cl)c2)CC1
- TGI (HCT-15 colon): 34.1 µM
- TGI (HOP-62 NSCLC): 60.6 µM
- TGI (M14 melanoma): 35.6 µM
- TGI (IGROV1 ovarian): 49 µM
- TGI (EKVX NSCLC): > 100 µM
- TGI (U251 CNS): 49.2 µM
- TGI (HCC-2998 colon): 28.9 µM
- TGI (SNB-75 CNS): > 100 µM
- TGI (LOX IMVI melanoma): 33.7 µM
- TGI (OVCAR-4 ovarian): 46.7 µM
- TGI (MDA-MB-231 breast): 56.7 µM
- TGI (NCI-H522 lung): 31.6 µM
- TGI (SK-MEL-5 melanoma): 38.2 µM
- TGI (RPMI-8226 leukemia): > 100 µM
- TGI (ACHN renal): 34.5 µM
- TGI (SK-MEL-2 melanoma): 92.6 µM
- TGI (HL-60(TB) leukemia): > 100 µM
- TGI (SR leukemia): > 100 µM
- TGI (NCI-H460 lung): 38.5 µM
- TGI (RXF 393 renal): 38.9 µM
- TGI (MCF7 breast): 19.4 µM
- TGI (SK-OV-3 ovarian): > 100 µM
- TGI (A498 renal): > 100 µM
- TGI (NCI-H226 lung): 72.8 µM
- TGI (MDA-MB-435): 55.1 µM
- TGI (COLO 205 colon): 70.8 µM
- TGI (UACC-257 melanoma): > 100 µM
- TGI (HOP-92 NSCLC): 64.8 µM
- TGI (HT29 colon): 46.8 µM
- TGI (SF-268 CNS): > 100 µM
- TGI (T-47D breast): 77.4 µM
- TGI (SW-620 colon): 52.1 µM
- TGI (OVCAR-8 ovarian): > 100 µM
- TGI (SN12C renal): 80.9 µM
- TGI (HCT-116 colon): 23.8 µM
- TGI (UACC-62 melanoma): 45.3 µM
- TGI (CCRF-CEM leukemia): > 100 µM
- TGI (K-562 leukemia): > 100 µM
- TGI (NCI/ADR-RES ovarian): > 100 µM
- TGI (A549 NSCLC): > 100 µM
- TGI (DU-145 prostate): 54.4 µM
- TGI (OVCAR-5 ovarian): 39.9 µM
- TGI (786-0 renal): 21 µM
- TGI (KM12 colon): 40.6 µM
- TGI (SF-539 CNS): 30.7 µM
- TGI (CAKI-1 renal): 31.8 µM
- TGI (PC-3 prostate): 57.1 µM
- TGI (UO-31 renal): 32.6 µM
- TGI (TK-10 renal): 36.6 µM
- TGI (OVCAR-3 ovarian): 58.4 µM
- TGI (MOLT-4 leukemia): > 100 µM
- TGI (BT-549 breast): 59.8 µM
- TGI (SF-295 CNS): 46.5 µM
- TGI (SK-MEL-28 melanoma): 46.3 µM
